# From patent US20230149409A1, “TREATMENT OF HUMAN PAPILLOMAVIRUS-ASSOCIATED CANCERS BY PD-L1 INHIBITORS” (priority 2021, published 2023)
# Experiments:
# [1] = tested on: PD-L1 (U2OS/PD-L1 cells, Jurkat-PD-1-SHP cells); assay: Src Homology Region 2 Domain-containing Phosphatase (SHP) assay; type: cell-based; conditions: Homo sapiens; U2OS/PD-L1 + Jurkat-PD-1-SHP cells, 2 hours
# Protocol: Example 1B. Src Homology Region 2 Domain-containing Phosphatase (SHP) Assay
# U2OS/PD-L1 cells (DiscoveRx Corporation) were maintained in McCoy’s 5A medium with addition of 10% FBS, 0.25 µg/mL Puromycin. After removing the culture media, the cell medium was replaced with assay medium (RPMI1640 medium with 1% FBS). The U2OS/PD-L1 cells were then added in 384-well black clear bottom assay plate (CELLCOAT® Tissue Culture Plates, Greiner Bio-One) at 5000 cells per well in 20 uL assay medium. Test compounds were prepared by serial dilution in DMSO and 125 nL compound were first transferred to the 384 REMP plate well (Thermofisher) by ECHO liquid handler (Labcyte) followed with addition of 27.5 uL assay medium. 5 µL/well compounds in the assay medium were transferred to the cell plate with 0.05% DMSO in the final assay at 0.25 µM. Jurkat-PD-1-SHP cells (DiscoveRx Corporation) were cultured in RPMI1640 medium supplemented with 10% FBS, 250 µg/mL Hygromycin B, 500 µg/mL G418. After the replacement of culture media with assay medium, 5,000 Jurkat-PD-1-SHP cells in 20 µL were dispensed into each well. The assay plate was incubated at 37° C., 5% CO2 for 2 hours before 2.5 uL PathHunter reagent 1 (DiscoveRx Corporation) were added to each well. The assay plate was shaken for 1 min at 350 rpm in the dark followed with addition of 10 uL PathHunter reagent 2 (DiscoveRx Corporation). Chemiluminescent signal was recorded with TopCount reader (Perkin Elmer) after incubation at room temperature for 1 hour. Wells with DMSO were served as the positive controls and wells containing no cells were used as negative controls. IC50 determination was performed by fitting the curve of percentage of control activity versus the log of the compound concentration using the GraphPad Prism 6.0 software.
# [2] = target: T1, PD-⅟PD-L1 (recombinant human PD-L1 protein and human PD-1 protein) (Homo sapiens, UniProt Q9NZQ7); assay: Homogeneous Time-Resolved Fluorescence (HTRF) PD-1/PD-L1 binding assay; conditions: 3 nM PD1, 10 nM PD-L1, 25° C., PBS pH 7.4
# T1 construct: Recombinant human PD-L1 protein (19-238) with a His-tag at the C-terminus; purchased AcroBiosystems PD1-H5229 (PD-L1); PD1-H5257 (PD-1)
# Protocol: Homogeneous Time-Resolved Fluorescence (HTRF) PD-⅟PD-L1 Binding Assay
# The assays were conducted in a standard black 384-well polystyrene plate with a final volume of 20 uL. Inhibitors were first serially diluted in DMSO and then added to the plate wells before the addition of other reaction components. The final concentration of DMSO in the assay was 1%. The assays were carried out at 25° C. in the PBS buffer (pH 7.4) with 0.05% Tween-20 and 0.1% BSA. […] PD-L1 and PD-1 proteins were diluted in the assay buffer and 10 uL was added to the plate well. Plates were centrifuged and proteins were preincubated with inhibitors for 40 minutes. The incubation was followed by the addition of 10 uL of HTRF detection buffer supplemented with Europium cryptate-labeled anti-human IgG (PerkinElmer-AD0212) specific for Fc and anti-His antibody conjugated to SureLight®-Allophycocyanin (APC, PerkinElmer-AD0059H). […] Final concentrations in the assay were - 3 nM PD1, 10 nM PD-L1, 1 nM europium anti-human IgG and 20 nM anti-His-Allophycocyanin. IC50 determination was performed by fitting the curve of percent control activity versus the log of the inhibitor concentration using the GraphPad Prism 5.0 software.
# [3] = target: T2, PD-L1 on CD14+ cells in human whole blood (Homo sapiens, UniProt Q9NZQ7); assay: PD-L1 whole blood internalization assay; type: cell-based; conditions: 1 ng/mL interferon γ, CD14+ gated, 24 hour
# T2 construct: Cells were gated on CD14+ (BD Biosciences) and PD-L1 expression determined by mean fluorescence intensity; host or cells: CD14+ cells in normal human whole blood, stimulated with human interferon gamma
# Protocol: PD-L1 Whole Blood Internalization Assay
# To determine PD-L1 internalization in human whole blood, normal human blood (Biological Specialty Corp, Colmar. PA) was incubated in the presence or absence of a concentration range of test compounds and 1 ng/mL human interferon γ (R&D Systems Inc. Minn. MN) in a 96 well “2 mL Assay Block” (Corning, Corning NY) for 18-20 hours at 37 °C. Blood was then stained with PD-L1 (MIH1, eBioscience; or BD Biosciences San Jose, CA), CD14 (Life Technologies, Carlsbad, CA) for 30 minutes in the dark at room temperature. Whole Blood/red cells were lysed/fixed (lysis buffer BD Biosciences) for 5 minutes at 37 °C in the dark and then centrifuged at 1600 RPM for 5 minutes. Cells were resuspended in Stain Buffer (BD Bioscience, San Jose, CA) and transferred into 96 well round bottom plates (Coming). Cells were gated on CD14+ (BD Biosciences) and PD-L1 expression determined by mean fluorescence intensity (MFI) (BD LSRFortessa® X-20). IC50 determination was performed by fitting the curve of compound percent inhibition versus the log of the compound concentration using the GraphPad Prism 7.0 software.
# [4] = tested on: PD-L1 (PD-L1 aAPC/CHO-K1 cells, Jurkat-PD-1-NFAT effector cells); assay: Nuclear Factor of Activated T-cells (NFAT) assay; type: cell-based; conditions: Cricetulus griseus; PD-L1 aAPC/CHO-K1 + Jurkat-PD-1-NFAT cells, 24 hours
# Protocol: Nuclear Factor of Activated T-cells (NFAT) Assay
# PD-L1 aAPC/CHO-K1cells (Promega) were maintained in F-12 medium with addition of 10% FBS, 200 µg/mL Hygromycin B, 250 µg/mL Geneticin (G418). […] The culture media of PD-L1 aAPC/CHO-K1 cells were first replaced with assay medium (RPMI1640 medium with 1% FBS). The PD-L1 aAPC/CHO-K1cells were then added in a white 384-well white clear bottom assay plate (CELLCOAT® Tissue Culture Plates, Greiner Bio-One) at 8000 per well in 10 uL assay medium. […] 5 uL compounds in the assay medium were transferred to the cells with 0.4% DMSO in the final assay at 2 µM. After removing the culture media, 10,000 Jurkat-PD-1-NFAT effector cells in 5 µL assay medium was dispensed into each well. The assay plate was incubated at 37° C., 5% CO2 for 24 hours. […] After 8 minutes incubation at room temperature, luminescence was read at with Pherastar microplate reader (BMG Labtech). The fold of induction (FOI) was calculated based on the ratio of luminescence normalized to the DMSO wells within each assay plate. The maximum percentage of induction was reported based on the ratio between the highest FOI of each compound and the maximum FOI of control compound within each assay plate. Wells with DMSO were served as the negative controls and wells containing control compound with the highest FOI were used as positive controls. EC50 determination was performed by fitting the curve of percent control activity versus the log of the compound concentration using the GraphPad Prism 6.0 software.
# T1 sequence (Q9NZQ7 19-238): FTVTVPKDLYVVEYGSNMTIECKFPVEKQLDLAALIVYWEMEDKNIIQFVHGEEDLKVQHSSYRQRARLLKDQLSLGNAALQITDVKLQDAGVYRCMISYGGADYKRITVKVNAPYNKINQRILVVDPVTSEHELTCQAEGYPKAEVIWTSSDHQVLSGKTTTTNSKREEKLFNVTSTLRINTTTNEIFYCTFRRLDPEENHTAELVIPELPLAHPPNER
# T2 sequence (Q9NZQ7 19-290): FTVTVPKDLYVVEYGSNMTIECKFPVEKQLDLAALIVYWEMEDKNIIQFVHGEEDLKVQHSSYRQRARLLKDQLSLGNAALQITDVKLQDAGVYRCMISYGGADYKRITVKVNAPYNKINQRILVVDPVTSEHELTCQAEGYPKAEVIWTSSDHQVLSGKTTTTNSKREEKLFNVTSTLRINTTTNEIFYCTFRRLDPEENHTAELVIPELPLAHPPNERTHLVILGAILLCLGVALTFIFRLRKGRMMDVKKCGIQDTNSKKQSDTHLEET
smiles,measurement,setting,value
"Cc1c(NC(=O)c2nc3c(n2C)CCN(C[C@H]2CC[C@@H](C(=O)O)CC2)C3)cccc1-c1cccc(NC(=O)c2nc3c(n2C)CCN(C)C3)c1Cl [Compound 17, cis-4-((2-((2′-chloro-3′-(1,5-dimethyl-4,5,6,7-tetrahydro-1H-imidazo[4,5-c]pyfidine-2-caiboxamido)-2-methyl-[1,1′-biphenyl]-3-yl)caibamoyl)-1-methyl-1,4,6,7-tetrahydro-5H-imidazo[4,5-c]pyridin-5-yl)methyl)cyclohexane-1-carboxylic acid]",IC50,[1],< 10 nM
same,IC50,[2],< 10 nM
same,IC50,[3],< 100 nM
same,EC50,[4],< 100 nM
"Cc1c(Nc2nccc3cc(CN4CC[C@@H](O)C4)cnc23)cccc1-c1cccc(NC(=O)c2nc3c(n2C)CCN(CC[C@H]2CC[C@H](C(=O)O)CC2)C3)c1Cl [Compound 10, trans 4-(2-(2-(2-chloro-3′-(3-(((R)-3-hydroxypyrrolidin-1-yl)methyl)-1,7-naphthyridin-8-ylamino)-2′-methylbiphenyl-3-ylcarbamoyl)-1-methyl-6,7-dihydro-1H-imidazo[4,5-c]pyridin-5(4H)-yl)ethyl)cyclohexanecarboxylic acid]",IC50,[1],< 10 nM
same,IC50,[2],< 10 nM
same,IC50,[3],< 100 nM
same,EC50,[4],< 100 nM
"Cc1c(NC(=O)c2ccc(CNCCO)cn2)cccc1-c1cccc(NC(=O)c2ccc(CNCCO)cn2)c1Cl [Compound 7, N,N′-(2-chloro-2′-methylbiphenyl-3,3′-diyl)bis(5-((2-hydroxyethylamino)methyl)picolinamide)]",IC50,[1],< 10 nM
same,IC50,[2],< 10 nM
same,IC50,[3],< 10 nM
same,EC50,[4],< 100 nM
"Cn1c(C(=O)Nc2cccc(-c3cccc(NC(=O)c4nc5c(n4C)CCN(CC46CCC(C(=O)O)(CC4)C6)C5)c3Cl)c2Cl)nc2c1CCN(CCC13CCC(C(=O)O)(CC1)C3)C2 [Compound 31, 4-((2-((3′-(5-(2-(4-carboxybicyclo[2.2.1]heptan-1-yl)ethyl)-1-methyl-4,5,6,7-tetrahydro-1H-imidazo[4,5-c]pyridine-2-carboxamido)-2,2′-dichloro-[1,1′-biphenyl]-3-yl)carbamoyl)-1-methyl-1,4,6,7-tetrahydro-5H-imidazo[4,5-c]pyridin-5-yl)methyl)bicyclo[2.2.1]heptane-1-carboxylic acid]",IC50,[1],< 10 nM
same,IC50,[2],< 10 nM
same,IC50,[3],< 100 nM
same,EC50,[4],< 100 nM
"CCN(C)CC(=O)N1Cc2nc(-c3cccc(-c4cccc(NC(=O)c5nc6c(n5C)CCN(CCC5CCC(C(=O)O)CC5)C6)c4Cl)c3C)sc2C1 (stereo not shown) [Compound 22, 4-(2-(2-(2-chloro-3′-(5-(2-(ethyl(methyl)amino)acetyl)-5,6-dihydro-4H-pyrrolo[3,4-d]thiazol-2-yl)-2′-methylbiphenyl-3-ylcarbamoyl)-1-methyl-6,7-dihydro-1H-imidazo[4,5-c]pyridin-5(4H)-yl)ethyl)cyclohexane-1-carboxylic acid]",IC50,[1],< 10 nM
same,IC50,[2],< 10 nM
same,IC50,[3],< 500 nM
same,EC50,[4],< 100 nM
Cc1c(Nc2ncnc3cc(CN4CC[C@@H](O)C4)cnc23)cccc1-c1cccc(NC(=O)c2nc3c(n2C)CCN(C2CCC(C)(C(=O)O)CC2)C3)c1Cl (stereo partly shown) [Compound 12],IC50,[1],< 10 nM
same,IC50,[2],< 10 nM
same,IC50,[3],< 100 nM
same,EC50,[4],< 100 nM
"CCN(C)CC(=O)N1Cc2nc(-c3cccc(-c4cccc(NC(=O)c5nc6c(n5C)CCN(C[C@H]5CC[C@@H](C(=O)O)CC5)C6)c4Cl)c3C)sc2C1 [Compound 21, cis-4-((2-(2-chloro-3′-(5-(2-(ethyl(methyl)amino)acetyl)-5,6-dihydro-4H-pyrrolo[3,4-d]thiazol-2-yl)-2′-methylbiphenyl-3-ylcarbamoyl)-1-methyl-6,7-dihydro-1H-imidazo [4,5-c]pyridin-5 (4H)-yl)methyl)cyclohexane-1-carboxylic acid]",IC50,[1],< 10 nM
same,IC50,[2],< 10 nM
same,IC50,[3],< 100 nM
same,EC50,[4],< 100 nM
